Measured values reported in PubChem BioAssay (NCI).
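Five compound concentrations were applied to cells in 96-well plates for 48 hours; endpoints were derived by simple linear interpolation of the resulting dose-response curve. The concentration for 50% growth inhibition is given as GI50. Definition used: TGI = concentration required for complete inhibition of growth.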

How the values were obtained:
Assay in all cases: NCI tumour cell line growth inhibition, 48 h
NCI-H522 lung = system: NCI-H522 lung
NCI/ADR-RES ovarian = system: NCI/ADR-RES ovarian
OVCAR-3 ovarian = system: OVCAR-3 ovarian
OVCAR-4 ovarian = system: OVCAR-4 ovarian
OVCAR-5 ovarian = system: OVCAR-5 ovarian
OVCAR-8 ovarian = system: OVCAR-8 ovarian
PC-3 prostate = system: PC-3 prostate
RPMI-8226 leukemia = system: RPMI-8226 leukemia
RXF 393 renal = system: RXF 393 renal
SF-268 CNS = system: SF-268 CNS
SF-295 CNS = system: SF-295 CNS
SF-539 CNS = system: SF-539 CNS
SK-MEL-2 melanoma = system: SK-MEL-2 melanoma
SK-MEL-28 melanoma = system: SK-MEL-28 melanoma
SK-MEL-5 melanoma = system: SK-MEL-5 melanoma
SK-OV-3 ovarian = system: SK-OV-3 ovarian
SN12C renal = system: SN12C renal
SNB-19 CNS = system: SNB-19 CNS
SNB-75 CNS = system: SNB-75 CNS
SW-620 colon = system: SW-620 colon
T-47D breast = system: T-47D breast
TK-10 renal = system: TK-10 renal
U251 CNS = system: U251 CNS
UACC-257 melanoma = system: UACC-257 melanoma
UACC-62 melanoma = system: UACC-62 melanoma
UO-31 renal = system: UO-31 renal

Q: With `C=C1C(=O)O[C@@H]2C1C[C@@H](O)/C(C)=C/C/C=C(\C)CCC[C@H](C)[C@H]2OC(C)=O` (some centres not stated) as the molecule, how does the GI50 (NCI-H522 lung) read?
A: Its GI50 is 22.7 µM.

Q: And the TGI (NCI-H522 lung)?
A: The TGI was 79.9 µM.

Q: What about the GI50 (NCI/ADR-RES ovarian) of the same molecule?
A: Its GI50 is 32.3 µM.

Q: What about the TGI (NCI/ADR-RES ovarian) of the same molecule?
A: The TGI was over 100 µM.

Q: What about the GI50 (OVCAR-3 ovarian) of the same molecule?
A: The GI50 was 21.4 µM.

Q: And the TGI (OVCAR-3 ovarian)?
A: The TGI was 42.7 µM.

Q: What about the GI50 (OVCAR-4 ovarian) of the same molecule?
A: The GI50 was 42.8 µM.

Q: And the TGI (OVCAR-4 ovarian)?
A: Its TGI is over 100 µM.

Q: What about the GI50 (OVCAR-5 ovarian) of the same molecule?
A: The GI50 was 56.3 µM.

Q: And the TGI (OVCAR-5 ovarian)?
A: Its TGI is over 100 µM.

Q: What about the GI50 (OVCAR-8 ovarian) of the same molecule?
A: The GI50 was 35.5 µM.

Q: And the TGI (OVCAR-8 ovarian)?
A: The TGI was over 100 µM.

Q: And the GI50 (PC-3 prostate)?
A: The GI50 was 21.4 µM.

Q: And the TGI (PC-3 prostate)?
A: The TGI was 51.3 µM.

Q: And the GI50 (RPMI-8226 leukemia)?
A: Its GI50 is 24.9 µM.

Q: And the TGI (RPMI-8226 leukemia)?
A: Its TGI is 48.6 µM.

Q: And the GI50 (RXF 393 renal)?
A: The GI50 was 19.3 µM.

Q: What about the TGI (RXF 393 renal) of the same molecule?
A: Its TGI is 50.2 µM.

Q: What about the GI50 (SF-268 CNS) of the same molecule?
A: The GI50 was 33.9 µM.

Q: And the TGI (SF-268 CNS)?
A: Its TGI is over 100 µM.

Q: What about the GI50 (SF-295 CNS) of the same molecule?
A: Its GI50 is over 100 µM.

Q: What about the TGI (SF-295 CNS) of the same molecule?
A: Its TGI is over 100 µM.

Q: And the GI50 (SF-539 CNS)?
A: The GI50 was 20.4 µM.

Q: What about the TGI (SF-539 CNS) of the same molecule?
A: The TGI was 39.9 µM.

Q: And the GI50 (SK-MEL-2 melanoma)?
A: The GI50 was 18.2 µM.

Q: And the TGI (SK-MEL-2 melanoma)?
A: The TGI was 67.9 µM.

Q: What about the GI50 (SK-MEL-28 melanoma) of the same molecule?
A: The GI50 was 34.5 µM.

Q: And the TGI (SK-MEL-28 melanoma)?
A: The TGI was over 100 µM.

Q: And the GI50 (SK-MEL-5 melanoma)?
A: Its GI50 is 17.7 µM.

Q: What about the TGI (SK-MEL-5 melanoma) of the same molecule?
A: The TGI was 35.5 µM.

Q: And the GI50 (SK-OV-3 ovarian)?
A: Its GI50 is 69.3 µM.

Q: And the TGI (SK-OV-3 ovarian)?
A: The TGI was over 100 µM.

Q: And the GI50 (SN12C renal)?
A: Its GI50 is 27.2 µM.

Q: And the TGI (SN12C renal)?
A: The TGI was 66.3 µM.

Q: And the GI50 (SNB-19 CNS)?
A: The GI50 was 61 µM.

Q: And the TGI (SNB-19 CNS)?
A: The TGI was over 100 µM.

Q: And the GI50 (SNB-75 CNS)?
A: Its GI50 is 38.6 µM.

Q: And the TGI (SNB-75 CNS)?
A: The TGI was over 100 µM.

Q: What about the GI50 (SW-620 colon) of the same molecule?
A: The GI50 was 26 µM.

Q: And the TGI (SW-620 colon)?
A: The TGI was 58.9 µM.

Q: What about the GI50 (T-47D breast) of the same molecule?
A: Its GI50 is 48.4 µM.

Q: And the TGI (T-47D breast)?
A: Its TGI is over 100 µM.

Q: What about the GI50 (TK-10 renal) of the same molecule?
A: The GI50 was 24.2 µM.

Q: What about the TGI (TK-10 renal) of the same molecule?
A: Its TGI is 52.7 µM.

Q: What about the GI50 (U251 CNS) of the same molecule?
A: Its GI50 is 23.8 µM.

Q: And the TGI (U251 CNS)?
A: Its TGI is 52.4 µM.

Q: What about the GI50 (UACC-257 melanoma) of the same molecule?
A: Its GI50 is 36.4 µM.

Q: And the TGI (UACC-257 melanoma)?
A: The TGI was over 100 µM.

Q: What about the GI50 (UACC-62 melanoma) of the same molecule?
A: Its GI50 is 22 µM.

Q: What about the TGI (UACC-62 melanoma) of the same molecule?
A: Its TGI is 43.5 µM.

Q: And the GI50 (UO-31 renal)?
A: Its GI50 is 15.6 µM.

Q: And the TGI (UO-31 renal)?
A: The TGI was 39.4 µM.
